# In US8735150B2, “Methods for detecting embryonic stem cells, induced pluripotent stem cells, or cells undergoing reprogramming to produce induced pluripotent stem cells” (New York University, priority 2010, dated 2014):
# How the values were obtained:
# [1] = system: differentiated mESC; assay: CDy1 staining of differentiated mESC after LIF removal; type: cell-based, mouse; conditions: three days culture without LIF
# From the text: Morphologically distinguishable differentiated cells were observed after three days culture of mESC in the absence of LIF. As shown in the center panel, most of those cells were CDy1 negative, while some other cells that retained mESC morphology were stained by the dye.
# On the other hand, removing the LIF from the culture media induced mESC differentiation and it was observed that some cells were morphologically distinguishable from mESC three days later. Most of the differentiated cells were not stained by CDy1, while some other cells with mESC morphology were stained by the dye showing a similar pattern with immunocytochemical staining by Oct4 antibody (FIG. 11).
# [2] = system: human lung cancer cell line H522; assay: Comparison of CDy1 and ALDEFLUOR staining in H522; type: cell-based; conditions: fluorescence microscopy
# Experimental: (§1) In this experiment, the cells cultured on 6-well plates were incubated with 1 μM ALDEFLUOR® for one hour at 37° C. and then washed with PBS three times before ALDEFLUOR® assay buffer was added. Bright field (“B.F”) and fluorescence (FITC filter for ALDEFLUOR® and TRITC filter for CDy1) images were taken using a Nikon ECLIPSE Ti fluorescence microscope (Scale bars, 100 μm).
# (§2) Among the few fluorescent dyes used for stem cell staining (Zijlmans et al., “Modification of Rhodamine Staining Allows Identification of Hematopoietic Stem Cells with Preferential Short-term or Long-term Bone Marrow-Repopulating Ability,” Proc. Natl. Acad. Sci. USA, 92:8901-8905 (1995), which is hereby incorporated by reference in its entirety) is ALDEFLUOR® which employs a fluorescent substrate BODIPY-aminoacetaldehyde for aldehyde dehydrogenase (ALDH)1A1 (Storms et al., “Isolation of Primitive Human Hematopoietic Progenitors on the Basis of Aldehyde Dehydrogenase Activity,” Proc. Natl. Acad. Sci. USA, 96: 9118-9123 (1999), which is hereby incorporated by reference in its entirety). It has been used to identify and isolate certain types of stem cells including hematopoietic, neural, and mammary stem cells as well as cancer stem cells. Whether or not ALDEFLUOR® stains ESC has not been known. […] The stemness of hESC BG01V used in this study was verified by immunocytochemical staining of TRA-1-60 (FIG. 14).
# [3] = system: human ESC (hESC) (BG01V); assay: Comparison of CDy1 and ALDEFLUOR staining in hESC; type: cell-based; conditions: fluorescence microscopy
# Experimental: as §1
# BG01V cells cultured on MEF were selectively stained by CDy1. The expression of hESC marker TRA-1-60 in the CDy1-stained BG01V cells was detected by immunofluorescence staining (Scale bar, 100 μm).
# Among the few fluorescent dyes used for stem cell staining (Zijlmans et al., “Modification of Rhodamine Staining Allows Identification of Hematopoietic Stem Cells with Preferential Short-term or Long-term Bone Marrow-Repopulating Ability,” Proc. Natl. Acad. Sci. USA, 92:8901-8905 (1995), which is hereby incorporated by reference in its entirety) is ALDEFLUOR® which employs a fluorescent substrate BODIPY-aminoacetaldehyde for aldehyde dehydrogenase (ALDH)1A1 (Storms et al., “Isolation of Primitive Human Hematopoietic Progenitors on the Basis of Aldehyde Dehydrogenase Activity,” Proc. Natl. Acad. Sci. USA, 96: 9118-9123 (1999), which is hereby incorporated by reference in its entirety). […]
# [4] = system: mESC; assay: Comparison of CDy1 and ALDEFLUOR staining in mESC; type: cell-based, mouse; conditions: fluorescence microscopy
# Experimental: as §1, §2
# [5] = system: iPSC; assay: CDy1 staining of iPSC colonies generated from Oct4-GFP transgenic mouse MEF; type: cell-based
# Experimental: The retroviral packaging cell, PlatE cell, was maintained in DMEM containing 10% FBS, 100 U/ml penicillin, 100 μg/ml streptomycin, 10 μg/mlblasticidin S, and 1 μg/ml puromycin. For the generation of retroviruses, 40 μg of each retroviral vector expressing each mouse Oct4, Sox2, Klf4, and c-Myc was transfected together using Lipofectamine™ 2000 (Invitrogen, Carlsbad, Calif.) into PlatE cells plated at a density of 8×10^6 cells/10 cm cell culture dish and cultured overnight in DMEM containing 10% FBS. Medium was changed five hours after transfection to normal maintenance medium and incubated further in a humidified atmosphere of 5% CO2 and 95% air at 37° C. Culture supernatant was harvested 48 hours after transfection, filtered through a 0.45 μm syringe filter, concentrated by using amicon ultra-15 Centrifugal filter units (Millipore, Billerica, Mass.), and stored at −80° C. until use. For reprogramming, MEFs prepared from E13.5 B6; CBA-Tg(Pou5f1-EGFP)2Mnn/J mouse (Jackson Laboratory, Bar Harbor, Me.) embryo were infected with retrovirus mixture eight hours later. Polybrene (Sigma-Aldrich, St. Louis, Mo.) was added at a concentration of 10 μg/ml to increase virus adsorption. Infected MEFs were harvested 48 hours later by trypsinization and plated onto mytomycin C treated MEF feeder cells. The cells were maintained in mESC culture medium that was changed every day until designated time points.
# The reprogramming was performed in a 6-well culture dish by retroviral introduction of four transcriptions factors: Oct4, Sox2, Klf4, and c-Myc (Takahashi et al., “Induction of Pluripotent Stem Cells from Mouse Embryonic and Adult Fibroblast Cultures by Defined Factors,” Cell, 126(4):663-676 (2006), which is hereby incorporated by reference in its entirety). iPSC generation was verified by GFP expression, alkaline phosphatase assay, and immunostaining of SSEA-1 at 17 days post infection (“dpi”). […] When the 155 colonies grown in 6-well plate cells were treated with CDy1 at 17 dpi, 101 colonies (65%) were both CDy1 and GFP positive, 26 (17%) were CDy1-only positive, 4 (3%) were GFP-only positive and 24 (15%) were negative both for CDy1 and GFP, despite the fact that the morphology of the colonies was indistinguishable (FIG. 9).
# In a cell culture treated with CDy1 at an earlier time point of iPSC generation (10 dpi), increasing numbers of CDy1-stained colonies started to show GFP signal during the following days (FIG. 10A). To perform a more systematic analysis, the cells were stained with CDy1 at 2 dpi (i.e., when iPSC was not distinguishable by any means) and the CDy1 and GFP signals were tracked by daily acquisition of cell images using an ImageXpress^MICRO system. At 10 dpi, when small colonies started to appear, 342 CDy1-positive but GFP-negative colonies were selected and their GFP expression was followed until 25 dpi. An increasing number of colonies started to express GFP during this period, and 338 (99%) out of the 342 tracked colonies were GFP-positive at 25 dpi (FIG. 10B).
compound,measurement,setting,value
CCCCN(CCCC)c1ccc2c(-c3cccc(CN4CCOCC4)c3)c3ccc(=N)cc-3oc2c1 [CDy1],staining of differentiated cells,[1],not stained
same,staining of H522,[2],not
same,staining of hESC,[3],stained both
same,staining of mESC,[4],stained both
same,earliest CDy1 staining of the cells that expressed GFP at 12 dpi,[5],6 dpi
same,differences in number of GFP-positive colonies or cell morphology compared to untreated iPSC,[5]; 10 to 25 dpi,no detectable differences
same,selective staining of iPSC colony,[5]; 17 dpi,selectively stained the iPSC colony
same,colonies CDy1-only positive (number),"[5]; 17 dpi, of 155 colonies",26
same,colonies CDy1-only positive (percent),"[5]; 17 dpi, of 155 colonies",17%
same,colonies GFP-only positive (number),"[5]; 17 dpi, of 155 colonies",4
same,colonies GFP-only positive (percent),"[5]; 17 dpi, of 155 colonies",3%
same,colonies both CDy1 and GFP positive (number),"[5]; 17 dpi, of 155 colonies",101
same,colonies both CDy1 and GFP positive (percent),"[5]; 17 dpi, of 155 colonies",65%
same,colonies negative both for CDy1 and GFP (number),"[5]; 17 dpi, of 155 colonies",24
